Laboratory results published in ChEMBL document CHEMBL1909046, “DrugMatrix in vitro pharmacology data”.

Columns and labels:
[1] = molecular target: T1, Vasoactive intestinal polypeptide receptor 1 (Homo sapiens, UniProt P32241); type: cell membranes, Membrane; conditions: ht-29; also: in other assays of this panel Not Active means under 50% inhibition at 10 µM
T1 sequence (P32241 whole entry): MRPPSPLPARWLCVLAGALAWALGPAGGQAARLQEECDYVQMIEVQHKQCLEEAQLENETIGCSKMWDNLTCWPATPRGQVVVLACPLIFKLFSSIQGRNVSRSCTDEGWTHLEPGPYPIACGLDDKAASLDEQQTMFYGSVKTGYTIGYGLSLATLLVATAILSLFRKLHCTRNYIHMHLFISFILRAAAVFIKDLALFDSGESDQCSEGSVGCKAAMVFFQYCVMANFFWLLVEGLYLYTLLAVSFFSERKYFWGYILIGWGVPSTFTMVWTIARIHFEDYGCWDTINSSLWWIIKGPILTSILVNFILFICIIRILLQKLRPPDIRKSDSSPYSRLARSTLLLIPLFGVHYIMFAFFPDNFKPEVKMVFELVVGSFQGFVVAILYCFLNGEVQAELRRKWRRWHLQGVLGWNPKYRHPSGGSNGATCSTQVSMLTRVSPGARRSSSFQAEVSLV

[2] = molecular target: T2, Alpha-2C adrenergic receptor (Homo sapiens, UniProt P18825); test: DRUGMATRIX: Adrenergic Alpha-2C radioligand binding (ligand: [3H] MK-912); type: cell membranes, Sf9, Membrane; conditions: for Ki: read-out: Ki; as to IC50: call rule not given here
T2 sequence (P18825 whole entry): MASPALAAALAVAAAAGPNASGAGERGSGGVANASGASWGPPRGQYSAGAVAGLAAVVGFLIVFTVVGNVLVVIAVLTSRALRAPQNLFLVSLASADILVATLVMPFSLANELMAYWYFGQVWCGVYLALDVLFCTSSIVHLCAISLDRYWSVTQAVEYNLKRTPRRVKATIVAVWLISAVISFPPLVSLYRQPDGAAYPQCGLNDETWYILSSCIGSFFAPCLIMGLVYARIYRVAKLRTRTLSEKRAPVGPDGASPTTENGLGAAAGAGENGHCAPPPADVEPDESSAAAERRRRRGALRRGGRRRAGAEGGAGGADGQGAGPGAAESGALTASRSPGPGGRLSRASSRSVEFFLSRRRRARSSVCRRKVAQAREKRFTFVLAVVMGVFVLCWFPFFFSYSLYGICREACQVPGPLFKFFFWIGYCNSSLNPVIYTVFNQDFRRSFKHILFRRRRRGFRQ

B2 bradykinin receptor = molecular target: T3, B2 bradykinin receptor (Homo sapiens, UniProt P30411); type: cell membranes, Membrane; conditions: chem-1; also: in other assays of this panel Not Active means under 50% inhibition at 10 µM
T3 sequence (P30411 whole entry): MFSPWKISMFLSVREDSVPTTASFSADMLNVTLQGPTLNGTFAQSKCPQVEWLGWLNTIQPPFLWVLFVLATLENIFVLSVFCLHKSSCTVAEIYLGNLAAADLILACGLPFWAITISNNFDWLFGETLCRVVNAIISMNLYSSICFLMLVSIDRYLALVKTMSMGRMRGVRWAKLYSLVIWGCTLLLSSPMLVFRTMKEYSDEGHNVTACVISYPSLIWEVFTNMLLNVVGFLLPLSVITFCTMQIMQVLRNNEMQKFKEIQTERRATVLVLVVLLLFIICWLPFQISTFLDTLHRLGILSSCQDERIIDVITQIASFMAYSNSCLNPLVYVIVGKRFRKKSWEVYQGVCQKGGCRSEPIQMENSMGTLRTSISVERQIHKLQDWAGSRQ

Cathepsin G = molecular target: T4, Cathepsin G (Homo sapiens, UniProt P08311); type: tissue-based; conditions: neutrophil;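 also: inhibition of Cathepsin G enzyme activity, tested on an AMC-conjugated peptide substrate; in other assays of this panel Not Active means under 50% inhibition at 10 µM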
T4 sequence (P08311 whole entry): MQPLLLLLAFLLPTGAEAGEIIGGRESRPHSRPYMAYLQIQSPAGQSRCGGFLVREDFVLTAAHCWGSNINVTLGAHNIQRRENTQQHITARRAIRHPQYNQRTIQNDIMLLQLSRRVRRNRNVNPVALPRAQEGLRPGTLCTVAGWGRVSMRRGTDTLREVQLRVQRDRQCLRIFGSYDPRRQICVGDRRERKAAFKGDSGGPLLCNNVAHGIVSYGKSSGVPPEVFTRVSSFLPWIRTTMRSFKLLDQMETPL

Endothelin-1 receptor = molecular target: T5, Endothelin-1 receptor (Homo sapiens, UniProt P25101); type: cell membranes, Membrane; conditions: cho-k1; also: in other assays of this panel Not Active means under 50% inhibition at 10 µM
T5 sequence (P25101 whole entry): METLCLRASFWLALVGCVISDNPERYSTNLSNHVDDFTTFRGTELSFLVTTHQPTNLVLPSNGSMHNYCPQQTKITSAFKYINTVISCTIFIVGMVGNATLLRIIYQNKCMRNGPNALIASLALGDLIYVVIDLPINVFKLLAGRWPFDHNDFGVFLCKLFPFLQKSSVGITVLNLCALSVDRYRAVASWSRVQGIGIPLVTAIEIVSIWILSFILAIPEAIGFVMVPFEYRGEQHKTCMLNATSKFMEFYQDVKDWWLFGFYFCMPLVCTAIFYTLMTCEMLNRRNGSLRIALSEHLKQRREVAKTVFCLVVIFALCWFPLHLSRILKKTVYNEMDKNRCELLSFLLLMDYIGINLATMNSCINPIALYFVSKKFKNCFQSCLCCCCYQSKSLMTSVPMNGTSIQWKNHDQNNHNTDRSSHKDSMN

Adenosine receptor A1 = molecular target: T6, Adenosine receptor A1 (Homo sapiens, UniProt P30542); type: cell membranes, Membrane; conditions: cho
T6 sequence (P30542 whole entry): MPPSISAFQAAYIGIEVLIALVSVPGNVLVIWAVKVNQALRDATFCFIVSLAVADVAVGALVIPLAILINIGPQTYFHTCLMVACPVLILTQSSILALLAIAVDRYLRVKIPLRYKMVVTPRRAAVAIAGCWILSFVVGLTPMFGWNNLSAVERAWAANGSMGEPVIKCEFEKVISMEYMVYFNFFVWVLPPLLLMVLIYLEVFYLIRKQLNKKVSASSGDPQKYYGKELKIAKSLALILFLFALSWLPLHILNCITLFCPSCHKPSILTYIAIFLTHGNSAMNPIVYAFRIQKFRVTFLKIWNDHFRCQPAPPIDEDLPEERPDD

For `Cn1c(=O)c2c(ncn2CC2OCCO2)n(C)c1=O` [DOXOFYLLINE], the IC50 [1] was “Not Active”, the IC50 ([2]; sf9) was “Not Active” and the IC50 (B2 bradykinin receptor) was “Not Active”. The IC50 (Cathepsin G) was “Not Active”, the IC50 (Endothelin-1 receptor) was “Not Active” and the IC50 (Adenosine receptor A1) was “Not Active”.

With `COc1cccc2c1C(=O)c1c(O)c3c(c(O)c1C2=O)C[C@@](O)(C(=O)CO)C[C@@H]3O[C@H]1C[C@H](N)[C@H](O)[C@H](C)O1` [DOXORUBICIN] the IC50 [1] was “Not Active”, the IC50 ([2]; sf9) was “Not Active” and the IC50 (B2 bradykinin receptor) was “Not Active”. The IC50 (Cathepsin G) was “Not Active”, the IC50 (Endothelin-1 receptor) was “Not Active” and the IC50 (Adenosine receptor A1) was “Not Active”.

For `COc1cccc2c1C(=O)c1c(O)c3c(c(O)c1C2=O)C[C@@](O)(C(=O)CO)C[C@@H]3O[C@H]1C[C@H](N)[C@@H](O)[C@H](C)O1` [EPIRUBICIN], the IC50 [1] was “Not Active”, the IC50 ([2]; sf9) was “Not Active” and the IC50 (B2 bradykinin receptor) was “Not Active”. The IC50 (Cathepsin G) was “Not Active”, the IC50 (Endothelin-1 receptor) was “Not Active” and the IC50 (Adenosine receptor A1) was “Not Active”.

`C[C@]12CC[C@@H]3c4ccc(OC(=O)c5ccccc5)cc4CC[C@H]3[C@@H]1CC[C@@H]2O` [ESTRADIOL BENZOATE] was tested, and the IC50 [1] was “Not Active”, the IC50 ([2]; read-out: IC50) was 24.6 µM and the Ki [2] was 3.58 µM. For the same compound, the IC50 (B2 bradykinin receptor) was “Not Active”, the IC50 (Cathepsin G) was “Not Active” and the IC50 (Endothelin-1 receptor) was “Not Active”. For the same compound, the IC50 (Adenosine receptor A1) was “Not Active”.

With `C[C@]12CC[C@@H]3c4ccc(O)cc4CC[C@H]3[C@@H]1CC[C@@H]2O` [ESTRADIOL] the IC50 [1] was “Not Active”, the IC50 ([2]; sf9) was “Not Active” and the IC50 (B2 bradykinin receptor) was “Not Active”. The IC50 (Cathepsin G) was “Not Active”, the IC50 (Endothelin-1 receptor) was “Not Active” and the IC50 (Adenosine receptor A1) was “Not Active”.

With `CC[C@@H](CO)NCCN[C@@H](CC)CO` [ETHAMBUTOL] the IC50 [1] was “Not Active”, the IC50 ([2]; sf9) was “Not Active” and the IC50 (B2 bradykinin receptor) was “Not Active”. The IC50 (Cathepsin G) was “Not Active”, the IC50 (Endothelin-1 receptor) was “Not Active” and the IC50 (Adenosine receptor A1) was “Not Active”.

`CC1(C)O[C@@H]2C[C@H]3[C@@H]4C[C@H](F)C5=CC(=O)C=C[C@]5(C)[C@H]4[C@@H](O)C[C@]3(C)[C@]2(C(=O)CO)O1` [FLUNISOLIDE] was tested, and the IC50 [1] was “Not Active”, the IC50 ([2]; sf9) was “Not Active” and the IC50 (B2 bradykinin receptor) was “Not Active”. For the same compound, the IC50 (Cathepsin G) was “Not Active”, the IC50 (Endothelin-1 receptor) was “Not Active” and the IC50 (Adenosine receptor A1) was “Not Active”.

In the case of `CC1(C)O[C@@H]2C[C@H]3[C@@H]4C[C@H](F)C5=CC(=O)C=C[C@]5(C)[C@@]4(F)[C@@H](O)C[C@]3(C)[C@]2(C(=O)CO)O1` [FLUOCINOLONE ACETONIDE], the IC50 [1] is reported as “Not Active”, the IC50 ([2]; sf9) is reported as “Not Active” and the IC50 (B2 bradykinin receptor) is reported as “Not Active”. For the same compound, the IC50 (Cathepsin G) was “Not Active”, the IC50 (Endothelin-1 receptor) was “Not Active” and the IC50 (Adenosine receptor A1) was “Not Active”.

`CC1(C)O[C@@H]2C[C@H]3[C@@H]4C[C@H](F)C5=CC(=O)CC[C@]5(C)[C@H]4[C@@H](O)C[C@]3(C)[C@]2(C(=O)CO)O1` [FLURANDRENOLIDE] was tested, and the IC50 [1] was “Not Active”, the IC50 ([2]; sf9) was “Not Active” and the IC50 (B2 bradykinin receptor) was “Not Active”. For the same compound, the IC50 (Cathepsin G) was “Not Active”, the IC50 (Endothelin-1 receptor) was “Not Active” and the IC50 (Adenosine receptor A1) was “Not Active”.

For `CN(C)c1ccc(C(=C2C=CC(=[N+](C)C)C=C2)c2ccc(N(C)C)cc2)cc1.[Cl-]` [GENTIAN VIOLET], the IC50 [1] was “Not Active”, the IC50 ([2]; read-out: IC50) was 1.88 µM and the Ki [2] was 0.274 µM. The IC50 (B2 bradykinin receptor) was “Not Active”, the IC50 (Cathepsin G) was “Not Active” and the IC50 (Endothelin-1 receptor) was “Not Active”. The IC50 (Adenosine receptor A1) was “Not Active”.

`Cc1ccc(S(=O)(=O)NC(=O)NN2CC3CCCC3C2)cc1` (stereo not drawn) [GLICLAZIDE] was tested, and the IC50 [1] was “Not Active”, the IC50 ([2]; sf9) was “Not Active” and the IC50 (B2 bradykinin receptor) was “Not Active”. For the same compound, the IC50 (Cathepsin G) was “Not Active”, the IC50 (Endothelin-1 receptor) was “Not Active” and the IC50 (Adenosine receptor A1) was “Not Active”.
